Assay results from paper PMC11124394, “Novel Combretastatin A-4 Analogs—Design, Synthesis, and Antiproliferative and Anti-Tubulin Activity” (Molecules, 2024).

How the values were obtained:
[1] = design: method as in earlier work; conditions: in contrast to the original compound; cited from earlier work
[2] = test system: MDA (breast cancer) cells; assay: SRB cytotoxicity assay, MDA; assay type: cell-based; conditions: Homo sapiens; SRB assay, 48 h culture, mean ± SD, at least three independent experiments; compounds marked * : low solubility, real values might be lower; read-out: Cytotoxicity IC50, MDA
Description: (§1) The antiproliferative activity was tested on human primary (SW480) and metastatic (SW620) colon cancer, human prostate cancer (PC3), human liver cancer (HepG2), human breast cancer (MDA), human lung cancer (A549), and human immortalized keratinocyte (HaCaT) cell lines obtained from the American Type Culture Collection (ATCC, Rockville, MD, USA). The cells were cultured in EMEM (SW480 and SW620), RPMI 1640 (PC3) or DMEM High Glucose (HepG2, MDA, A549, and HaCaT) with stable glutamine supplemented with 10% heat-inactivated fetal bovine serum (FBS), penicillin (100 U/mL), and streptomycin (100 µg/mL) in 37 °C and 5% CO2/95% air humified incubator. The cells were grown until 80–90% confluence and then were harvested with 0.25% trypsin and used for the experiments. All the reagents for the cell culture were provided by VWR Chemicals.
(§2) Cytotoxicity was tested with the sulforhodamine B (SRB) assay according to the National Cancer Institute protocol with slight modifications. Briefly, cells were seeded on a 96-well plate (5 × 10^3 cells per well). After 24 h incubation, zero-time control cells were fixed with TCA (final concentration 5%) for 1 h at 4 °C. […] The untreated cells were used as the control. After incubation, the cells were fixed with TCA (final concentration 5%) for 1 h at 4 °C, gently washed 4 times with tap water, and left for drying. The dried fixed cells were incubated with SRB solution (0.05% SRB in 1% acetic acid) for 30 min rt, washed four times with 1% acetic acid, and left for drying. The dried cells were dissolved in 10 mM Tris-base solution (pH 10.5) and the absorbance was read at 510 nm.
(§3) The cell viability was presented as a percent of SRB reduction in the treated cells versus that in control cells. The mean absorbance for control cells was assumed as 100%. No-cell control (blank well) absorbance was assumed as 0%, unless the compound was cytostatic, then 0% referred to zero-time control. The IC50 values were calculated using the GraphPad Prism 10.1.2 (324) (USA) software. The most cytotoxic compounds (8 and 20) were selected for further in vitro experiments.

A549 (lung cancer) cells = assay: SRB cytotoxicity assay, A549; assay type: cell-based; conditions: Homo sapiens, A549; SRB assay, 48 h culture, mean ± SD, at least three independent experiments; compounds marked * : low solubility, real values might be lower; read-out: Cytotoxicity IC50, A549
Description: as §1, §2, §3

[3] = test system: HepG2 (liver cancer) cells; assay: SRB cytotoxicity assay, HepG2; assay type: cell-based; conditions: Homo sapiens, HepG2; SRB assay, 48 h culture, mean ± SD, at least three independent experiments; compounds marked * : low solubility, real values might be lower; read-out: Cytotoxicity IC50, HepG2
Description: as §1, §2, §3

[4] = test system: SW620 (metastatic colon cancer) cells; assay: SRB cytotoxicity assay, SW620; assay type: cell-based; conditions: Homo sapiens, SW-620; SRB assay, 48 h culture, mean ± SD, at least three independent experiments; compounds marked * : low solubility, real values might be lower; read-out: Cytotoxicity IC50, SW620
Description: as §1, §2, §3

[5] = test system: SW480 (primary colon cancer) cells; assay: SRB cytotoxicity assay, SW480; assay type: cell-based; conditions: Homo sapiens, SW480; SRB assay, 48 h culture, mean ± SD, at least three independent experiments; compounds marked * : low solubility, real values might be lower; read-out: Cytotoxicity IC50, SW480
Description: as §1, §2, §3

[6] = SRB cytotoxicity assay, HaCaT; assay type: cell-based; conditions: human, 48 h culture, mean ± SD, at least three independent experiments, compounds marked * : low solubility, real values might be lower
Description: as §1, §2, §3

MDA cells = assay: Cell cycle analysis (PI, flow cytometry), MDA; assay type: cell-based, human; conditions: 24 h treatment; for Cell cycle phase arrest (ratio G2/M to G0/G1): 1.5 and 2 nM CA4, 25, 30, 40 mM 8, 15, 20, 30 mM 20
Description: (§4) The cell cycle was assessed for the compounds 8 and 20 and the combretastatin CA4 as a reference compound. The compounds were most cytotoxic to the MDA and A549 cancerous cell lines; thus, these cell lines were selected for further analyses. The HaCaT cell line was chosen to represent non-cancer cells. For the experiment, the cells were seeded on 6-well plates (5 × 10^4 cells per well). After 24 h of incubation, the cells were treated with the compounds in selected concentrations (1.5 and 2 nM for CA4; […]) and incubated for the next 24 h. Then, the cells were detached with 0.25% trypsin, washed with 0.9% NaCl, and fixed with 70% ethanol at 4 °C for at least 16 h. For drying, the cells were washed twice with 0.9% NaCl, resuspended in 50 μg/mL propidium iodide (PI) and 100 μg/mL RNase in PBS and incubated for 30 min at 37 °C. The cell cycle distribution was analyzed by flow cytometer (FACS Verse, Becton, Dickinson and Company, Franklin Lakes, NJ, USA).

HaCaT cells = assay: Cell cycle analysis (PI, flow cytometry), HaCaT; assay type: cell-based, human; conditions: 24 h treatment; for Cell cycle phase arrest (ratio G2/M to G0/G1): 1.5 and 2 nM CA4, 25, 30, 40 mM 8, 15, 20, 30 mM 20
Description: as §4

[7] = test system: PC3 (prostate cancer) cells; assay: SRB cytotoxicity assay, PC3; assay type: cell-based; conditions: Homo sapiens; SRB assay, 48 h culture, mean ± SD, at least three independent experiments; compounds marked * : low solubility, real values might be lower; read-out: Cytotoxicity IC50, PC3
Description: as §1, §2, §3

A549 cells = assay: Cell cycle analysis (PI, flow cytometry), A549; assay type: cell-based, human; conditions: A549, 24 h treatment; for Cell cycle phase arrest (ratio G2/M to G0/G1): 1.5 and 2 nM CA4, 25, 30, 40 mM 8, 15, 20, 30 mM 20
Description: as §4

tubulin = assay: In vitro tubulin polymerization (turbidometry at 340 nm, BK004P kit); assay type: biochemical, porcine; conditions: for Effect on in vitro tubulin polymerization: 37 °C, 60 min, absorbance 340 nm, CA-4 5 μM, colchicine 5 μM, compounds 8 and 20 at 20 or 100 μM; for Concentration dependence of the acceleration of tubulin polymerization: 20 and 100 μM
Description: The kinetics of microtubule assembly was assessed by measuring absorbance at 340 nm over time.
The assembly of purified bovine tubulin was monitored using a BK004P kit, purchased from Cytoskeleton Inc. (Denver, CO, USA). The assay was performed according to the manufacturer’s instructions using the standard assay conditions. […] Light was scattered proportionally to the concentration of the polymerized microtubules in the assay. Then, the tubulin assembly was monitored by turbidometry at 340 nm in a MultiscanGo spectrophotometer (ThermoFisher Scientific, Carlsbad, CA, USA) for 60 min. The time dependence of the tubulin polymerization was presented in the form of graphs prepared in the GraphPad Prism 8.4.3.686 (Boston, MA, USA) software.

[8] = test system: six human cancer cell lines (SW480, SW620, PC3, HepG2, MDA, A549) and HaCaT; assay: SRB cytotoxicity assay, whole panel; assay type: cell-based; conditions: Homo sapiens, depending on the compound and cell line, read-out: IC50 over the cell line panel
Description: The antiproliferative properties of the studied combretastatin derivatives were tested on six human cancer cell lines, including primary colon (SW480), metastatic colon (SW620), prostate (PC3), liver (HepG2), breast (MDA), and lung (A549) cancer cells, and non-tumor human immortalized keratinocyte cell line (HaCaT) using the sulforhodamine B (SRB) assay. […] No selectivity was observed against the tumor cell lines when compared to that against the non-tumor cell line. Nevertheless, these values were much higher than the IC50 of the reference compounds (<0.2 μM).
as §1, §2, §3

[9] = HaCaT immortalized keratinocyte cells (non-tumor cell line)

SMILES	Water solubility [1]	IC50 [2] [µM]	IC50 (A549 (lung cancer) cells) [µM]	IC50 [3] [µM]	IC50 [4] [µM]	IC50 [5] [µM]	IC50 at 48 h ([6]; non-tumor cell line) [µM]	DNA fragmentation (subG1 phase) (MDA cells)	Cell cycle phase arrest (ratio G2/M to G0/G1) (MDA cells)	DNA fragmentation (subG1 phase) (HaCaT cells)	Cell cycle phase arrest (ratio G2/M to G0/G1) (HaCaT cells)	IC50 [7] [µM]	Cell cycle phase arrest (ratio G2/M to G0/G1) (A549 cells)	Effect on in vitro tubulin polymerization (tubulin)	IC50 at 48 h [6, 9] [µM]	IC50 [8] [µM]	DNA fragmentation (subG1 phase) (A549 cells)	Concentration dependence of the acceleration of tubulin polymerization (tubulin)
COc1ccc(/C=C\c2cc(OC)c(OC)c(OC)c2)cc1OP(=O)(O)O [Combretastatin A4 phosphate, combretastatin A-4 disodium phosphate]	water-soluble	–	–	–	–	–	–	–	–	–	–	–	–	–	–	–	–	–
COc1ccc(/C=C\c2cc(OC)c(OC)c(OC)c2)cc1O [CA4, combretastatin A-4]	–	0.00372 ± 0.00027	0.00343 ± 0.00096	0.00158 ± 0.00019	0.00221 ± 0.00088	0.00281 ± 0.00017	0.00427 ± 0.00047	statistically significant differences between subG1 populations were observed	no statistically significant differences	appearance of the subG1 phase was observed	G2 phase arrest	0.0021 ± 0.00026	no statistically significant differences	inhibited tubulin polymerization	–	–	–	–
CCCCN(CCCC)C(=O)/C(=C/c1cc(OC)c(OC)c(OC)c1)c1ccc(OC)c(Br)c1 [Compound 20]	–	19 ± 7.1	19.4 ± 2.2	25.8 ± 9.6	20.9 ± 2.9	18.8 ± 0.8	–	–	G0/G1 phase arrest	appearance of the subG1 phase was observed	G0/G1 phase arrest	23.7 ± 10.3	G0/G1 phase arrest	enhanced tubulin polymerization	20.5 ± 9.7	18.8 to 32.7	certain differences were noted	on a similar level
COc1ccc(/C(=C\c2cc(OC)c(OC)c(OC)c2)C(=O)OCCCCBr)cc1Br [Compound 8]	–	23.1 ± 7.7	19.6 ± 2	25.5 ± 6.3	24.2 ± 8.4	32.7 ± 6.7	–	statistically significant differences between subG1 populations were observed	not observed	appearance of the subG1 phase was observed	G0/G1 phase arrest	31 ± 5.5	G0/G1 phase arrest	enhanced tubulin polymerization	23.9 ± 3.9	18.8 to 32.7	certain differences were noted	concentration-dependent
